Reference: patent US4029881A, “Antibiotic 9-acyl-3"-thiomethoxymethyl-SF-837 composition and process for preparing the same” (Meiji Seika Co., Ltd., priority 1972, dated 1977)
Values after ≈ are worked out from the molar mass of the structure shown. Where two headings read alike, the source gives them in different places.

Assays:
[1] = test system: Streptococcus pyrogenes Ti-125 Gr-A Type I; assay: therapeutic effect, treatment of animals infected by Streptococcus (Table 3 B); assay type: in vivo, ICR-JCL mouse; conditions: orally once, 5LD50
Experimental: B. treatment of animals infected by Streptococcus
Animals tested: The same as in A.
Method of administration: The same as in A.
Bacterium inoculated: Streptococcus pyrogenes Ti-125 Gr-A Type I.
Inoculum size: 1× 10^7 cells/0.5 ml/mouse(5LD50).

[2] = acute toxicity; assay type: in vivo, ICR-JCL mice; conditions: intraperitoneal, male mice, dead/tested
Excerpt: The acute toxicity of the 9-acyl-3"-thiomethoxymethyl-SF-837 substance
Animals tested: ICR-JCL mice, male.
Samples: Each substance was suspended in a 5% aqueous arabic gum solution.
Method of administration: Intraperitoneal injection.

[3] = test system: Staphylococcus aureus 209-P; assay: therapeutic effect, treatment of animals infected by Staphylococcus (Table 3 A); assay type: in vivo, ICR-JCL mouse; conditions: orally once, 10 LD50
Excerpt: Therapeutic effect of the 9-acyl-3"-thiomethoxymethyl-SF-837 substance against bacterial infections.
A. treatment of animals infected by Staphylococcus. Animals tested: ICR-JCL mouse, 4-week old, male, 10 heads for each group.
Bacterium inoculated: Staphylococcus aureus 209-P.
Method of administration: Samples were suspended in a sterilized 2% aqueous gum arabic solution and administered once to the mice inoculated with the bacterium.

[4] = test system: Vibrio coli SD-358; assay: antimicrobial spectrum, minimal inhibitory concentration; assay type: cell-based; conditions: Campylobacter coli, SD358
Excerpt: (§1) The antimicrobial spectrum of the 9-acyl-3"-thiomethoxymethyl-SF-837 substance obtained according to the present invention is shown in Table 1.
(§2) The antimicrobial spectrum of the 9-acetyl- and 9-propionyl-3"-thiomethoxymethyl-SF-837 substance made according to the invention.

[5] = test system: Mycoplasma gallisepticum S-15P; assay: as above; assay type: cell-based; conditions: Mycoplasmoides gallisepticum, read-out: Minimal Inhibitory Concentration
Excerpt: as §1, §2

[6] = test system: Escherichia coli; assay: as above; assay type: cell-based
Excerpt: as §1, §2

[7] = test system: Mycoplasma gallisepticum KP-13; assay: as above; assay type: cell-based; conditions: Mycoplasmoides gallisepticum, KP13
Excerpt: as §1, §2

[8] = test system: Mycoplasma gallisepticum CH3T; assay: as above; assay type: cell-based; conditions: Mycoplasmoides gallisepticum
Excerpt: as §1, §2

[9] = test system: Staphylococcus aureus; assay: as above; assay type: cell-based
Excerpt: as §1, §2

[10] = test system: Mycobacterium 607; assay: as above; assay type: cell-based
Excerpt: as §1, §2

[11] = test system: Neisseria gonorrhoeae Megurita; assay: as above; assay type: cell-based
Excerpt: as §1, §2

[12] = test system: Mycoplasma gallisepticum KP-3; assay: as above; assay type: cell-based; conditions: Mycoplasmoides gallisepticum, KP3
Excerpt: as §1, §2

[13] = test system: Mycoplasma gallisepticum S-35P; assay: as above; assay type: cell-based; conditions: Mycoplasmoides gallisepticum, read-out: Minimal Inhibitory Concentration
Excerpt: as §1, §2

[14] = test system: Vibrio coli 34E; assay: as above; assay type: cell-based; conditions: Campylobacter coli
Excerpt: as §1, §2

[15] = test system: Neisseria meningitidis; assay: as above; assay type: cell-based
Excerpt: as §1, §2

[16] = test system: Mycoplasma gallisepticum S-6; assay: as above; assay type: cell-based; conditions: Mycoplasmoides gallisepticum, S6
Excerpt: as §1, §2

[17] = test system: Vibrio coli SD-362; assay: as above; assay type: cell-based; conditions: Campylobacter coli, SD362
Excerpt: as §1, §2

[18] = test system: Mycoplasma gallisepticum T-4AT (tyrosine-resistant); assay: microbe, parasite or virus in culture; assay type: cell-based; conditions: Mycoplasmoides gallisepticum, read-out: Minimal Inhibitory Concentration
Excerpt: as §1, §2

[19] = test system: Staphylococcus aureus Strain 209-P; assay: therapeutic effect on staphylococcal infection of mice (Table 2); assay type: in vivo; conditions: 350mg/Kg oral; intraperitoneal infection by Staphylococcus aureus 209-P
Excerpt: Since the 9-acyl-3"-thiomethoxymethyl-SF-837 substance is inhibitory against Gram-positive bacteria as the SF-837 substance is, it is as well available as an antimicrobial agent. Particularly, it is notable that the in vitro antimicrobial activity of the 9-acyl-3"-thiomethoxymethyl-SF-837 substance of the present invention against Escherichia coli, Mycobacterium, Mycoplasma, and macrolide-resistant Mycoplasma is higher than that of the SF-837 substance. Furthermore, the results of the therapeutic tests using the mice infected by Staphylococcus aureus Strain 209 P was better with the said 9-acyl-3"-thiomethoxymethyl-SF-837 substance than with its parent substance (see Table 2).
Therapeutic effect of the 9-acyl-3"thiomethoxy-methyl-SF-837 substance made according to the invention on the staphylococcal infection of mice in laboratory*).
*)Infection of mouse intraperitoneally by Staphylococcus aureus Strain

[20] = S15P, Mycoplasma gallisepticum S-15P
[21] = S35P, Mycoplasma gallisepticum S-35P

Structure (SMILES)	Survival rate ([1]; 100 mg/Kg)	Survival rate ([1]; 200 mg/Kg)	Survival rate ([1]; 300 mg/Kg)	Survival rate ([1]; 400 mg/Kg)	Mortality ([2]; 2,000 mg/Kg)	Mortality ([2]; 4,000 mg/Kg)	Survival rate ([3]; 150 mg/Kg)	Survival rate ([3]; 200 mg/Kg)	Survival rate ([3]; 350 mg/Kg)	Survival rate ([3]; 400 mg/Kg)	MIC [4]	MIC [6]	MIC [7]	MIC [8]	MIC [9]	MIC [10]	MIC [11]	MIC [12]	MIC [14]	MIC [15]	also measured
CCC(=O)OC1CC(=O)OC(C)CC=CC=CC(OC(C)=O)C(C)CC(CC=O)C(OC2OC(C)C(OC3CC(C)(O)C(OC(=O)CC)C(C)O3)C(N(C)C)C2O)C1OC (stereo not shown) [9-Acetyl-SF-837, reference compound]	100%	100%	100%	100%	0/3	1/3	80%	100%	100%	100%											
CCC(=O)OC1CC(=O)OC(C)CC=CC=CC(OC(C)=O)C(C)CC(CC=O)C(OC2OC(C)C(OC3CC(C)(OCSC)C(OC(=O)CC)C(C)O3)C(N(C)C)C2O)C1OC (stereo not shown) [9-acetyl-3"-thiomethoxymethyl-SF-837]	100%	100%	100%	100%	0/3	0/3	30%	80%	90%	100%	> 50 µg/mL	50 µg/mL (≈ 54.6 µM)	< 0.1 µg/mL	< 0.1 µg/mL	0.78 µg/mL (≈ 0.851 µM)	6.25 µg/mL (≈ 6.82 µM)	100 µg/mL (≈ 109 µM)	< 0.1 µg/mL	25 µg/mL (≈ 27.3 µM)	6.25 µg/mL (≈ 6.82 µM)	MIC [5, 20]: < 0.1 µg/mL; MIC [13, 21]: < 0.1 µg/mL; MIC [16]: < 0.1 µg/mL; MIC [17]: 25 µg/mL (≈ 27.3 µM); MIC [18]: 12.5 µg/mL (≈ 13.6 µM); Survival rate in a week after oral administration [19]: 90%
CCC(=O)OC1C=CC=CCC(C)OC(=O)CC(OC(=O)CC)C(OC)C(OC2OC(C)C(OC3CC(C)(OCSC)C(OC(=O)CC)C(C)O3)C(N(C)C)C2O)C(CC=O)CC1C (stereo not shown) [9-propionyl-3"-thiomethoxymethyl-SF-837]	100%	100%	100%	100%	0/3	0/3	30%	70%	90%	100%	> 50 µg/mL	50 µg/mL (≈ 53.8 µM)	< 0.1 µg/mL	< 0.1 µg/mL	0.78 µg/mL (≈ 0.839 µM)	6.25 µg/mL (≈ 6.72 µM)	100 µg/mL (≈ 108 µM)	< 0.1 µg/mL	25 µg/mL (≈ 26.9 µM)	6.25 µg/mL (≈ 6.72 µM)	MIC [5, 20]: < 0.1 µg/mL; MIC [13, 21]: < 0.1 µg/mL; MIC [16]: < 0.1 µg/mL; MIC [17]: 25 µg/mL (≈ 26.9 µM); MIC [18]: 12.5 µg/mL (≈ 13.4 µM); Survival rate in a week after oral administration [19]: 90%
CCC(=O)OC1CC(=O)OC(C)CC=CC=CC(O)C(C)CC(CC=O)C(OC2OC(C)C(OC3CC(C)(O)C(OC(=O)CC)C(C)O3)C(N(C)C)C2O)C1OC (stereo not shown) [SF-837]	70%	90%	100%	100%	2/3	2/3	20%	40%	60%	90%	> 50 µg/mL	100 µg/mL (≈ 123 µM)	< 0.05 µg/mL	< 0.05 µg/mL	0.78 µg/mL (≈ 0.958 µM)	25 µg/mL (≈ 30.7 µM)	25 µg/mL (≈ 30.7 µM)	< 0.05 µg/mL	12.5 µg/mL (≈ 15.4 µM)	6.25 µg/mL (≈ 7.68 µM)	MIC [5]: 0.05 µg/mL (≈ 0.0614 µM); MIC [13]: 0.05 µg/mL (≈ 0.0614 µM); MIC [16]: 0.1 µg/mL (≈ 0.123 µM); MIC [17]: > 50 µg/mL; MIC [18]: > 100 µg/mL; Survival rate in a week after oral administration [19]: 37.5%
